In US20200024299A1, “CRYSTALLINE FORMS OF A BILE ACID DERIVATIVE” (Intercept Pharmaceuticals, Inc., priority 2016, published 2020):
Entries after “also recorded” stand apart in the source; their conditions may differ.

Experiments:
Type in all cases: physicochemical
[1] = Gravimetric Vapor Sorption (GVS), hygroscopicity
Experimental: Sorption isotherms were obtained using a SMS DVS Intrinsic moisture sorption analyzer, controlled by DVS Intrinsic Control software v1.0.1.2 (or v 1.0.1.3). The sample temperature was maintained at 25° C. by the instrument controls. The humidity was controlled by mixing streams of dry and wet nitrogen, with a total flow rate of 200 mL/min. The relative humidity was measured by a calibrated Rotronic probe (dynamic range of 1.0-100% RH), located near the sample. The weight change, (mass relaxation) of the sample as a function of % RH was constantly monitored by the microbalance (accuracy ±0.005 mg).
Typically, 5-20 mg of sample was placed in a tared mesh stainless steel basket under ambient conditions. The sample was loaded and unloaded at 40% RH and 25° C. (typical room conditions). A moisture sorption isotherm was performed as outlined below (2 scans giving 1 complete cycle). The standard isotherm was performed at 25° C. at 10% RH intervals over a 0-90% RH range. Data analysis was carried out using Microsoft Excel using DVS Analysis Suite v6.2 (or 6.1 or 6.0).

[2] = Storage stability at controlled temperature / relative humidity
[3] = Aqueous solubility at 25° C.; conditions: water
[4] = Variable Temperature XRPD (physical stability on heating); conditions: upon heating
Experimental: X-Ray Powder Diffraction patterns were collected on a Bruker AXS C2 GADDS diffractometer using Cu Kα radiation (40 kV, 40 mA), automated XYZ stage, laser video microscope for auto-sample positioning and a HiStar 2-dimensional area detector. X-ray optics consists of a single Gobel multilayer mirror coupled with a pinhole collimator of 0.3 mm. A weekly performance check is carried out using a certified standard NIST 1976 Corundum (flat plate).
The beam divergence, i.e., the effective size of the X-ray beam on the sample, was approximately 4 mm. A 0-0 (theta-theta) continuous scan mode was employed with a sample—detector distance of 20 cm which gives an effective 20 (theta) range of 3.2°-29.7°. Typically, the sample would be exposed to the X-ray beam for 120 seconds. The software used for data collection was GADDS for XP/2000 4.1.43 and the data were analyzed and presented using Diffrac Plus EVA v15.0.0.0.
Samples run under non-ambient conditions were mounted on a silicon wafer with heat-conducting compound. The sample was then heated to the appropriate temperature at 20° C./min and subsequently held isothermally for 1 minute before data collection was initiated.

[5] = listed as Amorphous Form of Compound 1-Na

## CC[C@H]1[C@@H](O)C2C3CC[C@H]([C@H](C)CCOS(=O)(=O)[O-])[C@@]3(C)CCC2[C@@]2(C)CC[C@@H](O)C[C@@H]12.[Na+] (stereo partly drawn) [6α-ethyl-3α,7α,23-trihydroxy-24-nor-5β-cholan-23-sulphate sodium]
[1]; 40% to 60% RH
  GVS water uptake from 40% to 60% RH: 2.6% w/w of water uptake from 40% to 60% RH.
[1]; after GVS
  XRPD post GVS: Unchanged
[1]; sorption/desorption
  GVS hysteresis (process reversible): ~1% w/w
[1]; whole GVS cycle
  GVS total water uptake: Total of 8% w/w water uptake.
[2]; 12 days, 25° C./60% RH
  12 days Storage @ 25° C./60% RH: Unchanged
[2]; 12 days, 40° C./60% RH
  12 days Storage @ 40° C./60% RH: Unchanged

## CC[C@H]1[C@@H](O)C2C3CC[C@H]([C@H](C)CCOS(=O)(=O)[O-])[C@@]3(C)CCC2[C@@]2(C)CC[C@@H](O)C[C@@H]12.[Na+] (stereo partly drawn) [Form A of Compound 1-Na Formed via Suspension] [6α-ethyl-3α,7α,23-trihydroxy-24-nor-5β-cholan-23-sulphate sodium]
[2]; 25° C./60% RH
  Storage @ 25° C./60% RH: successful for at least 1 month; also recorded: Unchanged for at least 1 month
[2]
  Storage @ 25° C./97% RH: Deliquesced in less than 3 days
  Storage @ 40° C./75% RH: Deliquesced in less than 3 days

## CC[C@H]1[C@@H](O)C2C3CC[C@H]([C@H](C)CCOS(=O)(=O)[O-])[C@@]3(C)CCC2[C@@]2(C)CC[C@@H](O)C[C@@H]12.[Na+] (stereo partly drawn) [Amorphous Compound 1-Na, 6α-ethyl-3α,7α,23-trihydroxy-24-nor-5β-cholan-23-sulphate sodium]
[3]
  Aqueous Solubility (25° C.): >200 mg/mL
  solubility: > 200 mg/mL
[2]; 25° C./60% RH
  Storage @ 25° C./60% RH: Unchanged for at least 1 month
[2]; 25° C./60% RH, listed as Amorphous Form of Compound 1-Na
  Storage @ 25° C./60% RH: physically stable for at least 1 month
[2]
  Storage @ 25° C./97% RH: Deliquesced in less than days
  Storage @ 40° C./75% RH: Deliquesced in less than 3 days
[2]; [5]
  Storage @ 25° C./97% RH: deliquescent
  Storage @ 40° C./75% RH: deliquescent

## CC[C@H]1[C@@H](O)C2C3CC[C@H]([C@H](C)CCOS(=O)(=O)[O-])[C@@]3(C)CCC2[C@@]2(C)CC[C@@H](O)C[C@@H]12.[Na+] (stereo partly drawn) [Example 5, 6α-ethyl-3α,7α,23-trihydroxy-24-nor-5β-cholan-23-sulphate sodium]
[1]; 25° C., 40% to 80% RH
  GVS water uptake from 40% to 80% RH: 4 % w/w
  GVS water uptake from 40% to 80% RH (equivalents of water): 1.1 eq
[1]; 25° C., 80% to 90% RH
  GVS water uptake from 80% to 90% RH: 24 % w/w
  GVS water uptake from 80% to 90% RH (equivalents of water): 6.6 eq
[1]; 25° C., up to 90% RH
  GVS: state of sample during the analysis: the sample deliquesced
[1]; 40% to 80% RH
  Hygroscopic profile from 40% to 80% RH: moderate hygroscopic profile
[1]; RH greater than 80%
  GVS water uptake at RH greater than 80%: 24%
  GVS water uptake at RH greater than 80% (equivalents of water): 6.6 eq
  Hygroscopic profile at RH greater than 80%: very hygroscopic profile
[4]
  VT-XRPD: unchanged upon heating
[2]; 25° C./60% RH
  Storage @ 25° C./60% RH: stable for at least one month; also recorded: Unchanged for at least 1 month
[2]
  Storage @ 25° C./97% RH: deliquesced sample after 3 days; also recorded: Deliquesced in three days
  Storage @ 40° C./75% RH: deliquesced sample after 3 days; also recorded: Deliquesced in three days
